Assay results as given in patent US8618138B2, “Indole amide derivatives and related compounds for use in the treatment of neurodegenerative diseases” (Katholieke Universiteit Leuven, K.U. Leuven R&D, priority 2009, dated 2013).

Tested on: M17-TAU P301L cells
Assay: TAU cytotoxicity assay: LDH leakage of retinoic acid incubated M17-TAU P301L cells
Format: cell-based, human
Conditions: Homo sapiens, 168 h, reduction of LDH activity of retinoic acid incubated M17-TAU P301L cells, 7 days
How it was run: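 M17 neuroblastoma cells stably expressing human TAU P301L, seeded at 2500 cells/cm2 in Optimem with 1% FCS, then given 2.5 μM retinoic acid (stock before 1:1 addition) and grown 7 days at 37 °C. Cytotoxicity read as LDH leaked into medium; EC50 derived from these measurements.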

Row | SMILES | EC50 [nM]
1 | COc1ccccc1N1CCC(C(=O)NCCc2c[nH]c3ccc(Cl)cc23)C1=O (stereo not shown) [Example D163, N-(2-(5-chloro-1H-indol-3-yl)ethyl)-1-(2-methoxyphenyl)-2-oxopyrrolidine-3-carboxamide] | 1860
2 | O=C(NCCc1c[nH]c2ccc(Cl)cc12)C1CCN(CC2CCCCC2)C1=O (stereo not shown) [Example D164, N-(2-(5-chloro-1H-indol-3-yl)ethyl)-1-(cyclohexylmethyl)-2-oxopyrrolidine-3-carboxamide] | 320
3 | Cc1ccc(N2CCC(C(=O)NCCc3c[nH]c4ccc(Cl)cc34)C2)cc1 (stereo not shown) [Example D165, N-(2-(5-chloro-1H-indol-3-yl)ethyl)-1-p-tolylpyrrolidine-3-carboxamide] | 188
4 | O=C(NCCc1n[nH]c2ccccc12)c1cc(Cc2cc(F)ccc2F)on1 [Example D166, N-(2-(1H-indazol-3-yl)ethyl)-5-(2,5-difluorobenzyl)isoxazole-3-carboxamide] | 631
5 | Cn1ccc2cc(N3CCC(C(=O)NCCc4c[nH]c5ccc(Cl)cc45)C3=O)ccc21 (stereo not shown) [Example D167, N-(2-(5-chloro-1H-indol-3-yl)ethyl)-1-(1-methyl-1H-indol-5-yl)-2-oxopyrrolidine-3-carboxamide] | 506
6 | O=C(NCCc1c[nH]c2ccc(Cl)cc12)c1noc(Cc2ccccc2)n1 [Example D168, 5-benzyl-N-(2-(5-chloro-1H-indol-3-yl)ethyl)-1,2,4-oxadiazole-3-carboxamide] | 77
7 | O=C(NCCc1c[nH]c2ccc(Cl)cc12)c1noc(Cc2cccc(F)c2)n1 [Example D169, N-(2-(5-chloro-1H-indol-3-yl)ethyl)-5-(3-fluorobenzyl)-1,2,4-oxadiazole-3-carboxamide] | 26
8 | O=C(NCCc1c[nH]c2ccc(Cl)cc12)c1noc(Cc2ccccc2F)n1 [Example D170, N-(2-(5-chloro-1H-indol-3-yl)ethyl)-5-(2-fluorobenzyl)-1,2,4-oxadiazole-3-carboxamide] | 45
9 | O=C(NCCc1c[nH]c2ccc(Cl)cc12)c1noc(Cc2ccc(F)cc2)n1 [Example D171, N-(2-(5-chloro-1H-indol-3-yl)ethyl)-5-(4-fluorobenzyl)-1,2,4-oxadiazole-3-carboxamide] | 32
10 | O=C(NCCc1c[nH]c2ccc(Cl)cc12)c1noc(Cc2ccc(Cl)cc2)n1 [Example D172, N-(2-(5-chloro-1H-indol-3-yl)ethyl)-5-(4-chlorobenzyl)-1,2,4-oxadiazole-3-carboxamide] | 34
11 | COc1ccc(Cc2nc(C(=O)NCCc3c[nH]c4ccc(Cl)cc34)no2)cc1 [Example D173, N-(2-(5-chloro-1H-indol-3-yl)ethyl)-5-(4-methoxybenzyl)-1,2,4-oxadiazole-3-carboxamide] | 60
12 | O=C(NCCc1c[nH]c2ccc(Cl)cc12)c1noc(Cc2ccc(Cl)c(Cl)c2)n1 [Example D174, N-(2-(5-chloro-1H-indol-3-yl)ethyl)-5-(3,4-dichlorobenzyl)-1,2,4-oxadiazole-3-carboxamide] | 282
13 | O=C(NCCc1c[nH]c2ccc(Cl)cc12)c1noc(Cc2ccc(Cl)c(F)c2)n1 [Example D175, N-(2-(5-chloro-1H-indol-3-yl)ethyl)-5-(4-chloro-3-fluorobenzyl)-1,2,4-oxadiazole-3-carboxamide] | 94
14 | CC(C)(C)c1ccc(Cc2nc(C(=O)NCCc3c[nH]c4ccc(Cl)cc34)no2)cc1 [Example D176, 5-(4-tert-butylbenzyl)-N-(2-(5-chloro-1H-indol-3-yl)ethyl)-1,2,4-oxadiazole-3-carboxamide] | 100
15 | COc1cccc(Cc2nc(C(=O)NCCc3c[nH]c4ccc(Cl)cc34)no2)c1 [Example D177, N-(2-(5-chloro-1H-indol-3-yl)ethyl)-5-(3-methoxybenzyl)-1,2,4-oxadiazole-3-carboxamide] | 29
16 | COc1ccc(Cc2nc(C(=O)NCCc3c[nH]c4ccc(Cl)cc34)no2)cc1OC [Example D178, N-(2-(5-chloro-1H-indol-3-yl)ethyl)-5-(3,4-dimethoxybenzyl)-1,2,4-oxadiazole-3-carboxamide] | 125
17 | COc1ccc(OC)c(Cc2nc(C(=O)NCCc3c[nH]c4ccc(Cl)cc34)no2)c1 [Example D179, N-(2-(5-chloro-1H-indol-3-yl)ethyl)-5-(2,5-dimethoxybenzyl)-1,2,4-oxadiazole-3-carboxamide] | 51

Row | SMILES | EC50 [nM]
18 | O=C(NCCc1c[nH]c2ccc(Cl)cc12)c1noc(Cc2cccs2)n1 [Example D180, N-(2-(5-chloro-1H-indol-3-yl)ethyl)-5-(thiophen-2-ylmethyl)-1,2,4-oxadiazole-3-carboxamide] | 103
19 | Cc1ccc(Cc2nc(C(=O)NCCc3c[nH]c4ccc(Cl)cc34)no2)cc1 [Example D181, N-(2-(5-chloro-1H-indol-3-yl)ethyl)-5-(4-methylbenzyl)-1,2,4-oxadiazole-3-carboxamide] | 48
20 | O=C(NCCc1c[nH]c2ccc(Cl)cc12)c1noc(Cc2cc(F)cc(F)c2)n1 [Example D182, N-(2-(5-chloro-1H-indol-3-yl)ethyl)-5-(3,5-difluorobenzyl)-1,2,4-oxadiazole-3-carboxamide] | 11
21 | COc1ccccc1Cc1nc(C(=O)NCCc2c[nH]c3ccc(Cl)cc23)no1 [Example D183, N-(2-(5-chloro-1H-indol-3-yl)ethyl)-5-(2-methoxybenzyl)-1,2,4-oxadiazole-3-carboxamide] | 47
22 | Cc1cccc(Cc2nc(C(=O)NCCc3c[nH]c4ccc(Cl)cc34)no2)c1 [Example D184, N-(2-(5-chloro-1H-indol-3-yl)ethyl)-5-(3-methylbenzyl)-1,2,4-oxadiazole-3-carboxamide] | 26
23 | O=C(NCCc1c[nH]c2ccc(Cl)cc12)c1noc(Cc2ccc(OC(F)(F)F)cc2)n1 [Example D185, N-(2-(5-chloro-1H-indol-3-yl)ethyl)-5-(4-(trifluoromethoxy)benzyl)-1,2,4-oxadiazole-3-carboxamide] | 42
24 | O=C(NCCc1c[nH]c2ccc(Cl)cc12)c1noc(Cc2cccc(C(F)(F)F)c2)n1 [Example D186, N-(2-(5-chloro-1H-indol-3-yl)ethyl)-5-(3-(trifluoromethyl)benzyl)-1,2,4-oxadiazole-3-carboxamide] | 119
25 | O=C(NCCc1c[nH]c2ccc(Cl)cc12)c1noc(Cc2ccc(C(F)(F)F)cc2)n1 [Example D187, N-(2-(5-chloro-1H-indol-3-yl)ethyl)-5-(4-(trifluoromethyl)benzyl)-1,2,4-oxadiazole-3-carboxamide] | 32
26 | O=C(NCCc1c[nH]c2ccc(Cl)cc12)c1noc(Cc2c(F)cccc2F)n1 [Example D188, N-(2-(5-chloro-1H-indol-3-yl)ethyl)-5-(2,6-difluorobenzyl)-1,2,4-oxadiazole-3-carboxamide] | 41
27 | O=C(NCCc1c[nH]c2ccc(Cl)cc12)c1noc(Cc2ccc(F)cc2F)n1 [Example D189, N-(2-(5-chloro-1H-indol-3-yl)ethyl)-5-(2,4-difluorobenzyl)-1,2,4-oxadiazole-3-carboxamide] | 15
28 | O=C(NCCc1c[nH]c2ccc(Cl)cc12)c1noc(Cc2cccc(Cl)c2)n1 [Example D190, N-(2-(5-chloro-1H-indol-3-yl)ethyl)-5-(3-chlorobenzyl)-1,2,4-oxadiazole-3-carboxamide] | 25
29 | O=C(NCCc1c[nH]c2ccc(Cl)cc12)c1noc(Cc2ccccc2Cl)n1 [Example D191, N-(2-(5-chloro-1H-indol-3-yl)ethyl)-5-(2-chlorobenzyl)-1,2,4-oxadiazole-3-carboxamide] | 25
30 | Cc1ccccc1Cc1nc(C(=O)NCCc2c[nH]c3ccc(Cl)cc23)no1 [Example D192, N-(2-(5-chloro-1H-indol-3-yl)ethyl)-5-(2-methylbenzyl)-1,2,4-oxadiazole-3-carboxamide] | 53
31 | O=C(NCCc1c[nH]c2ccc(Cl)cc12)c1noc(Cc2ccsc2)n1 [Example D193, N-(2-(5-chloro-1H-indol-3-yl)ethyl)-5-(thiophen-3-ylmethyl)-1,2,4-oxadiazole-3-carboxamide] | 49
32 | O=C(NCCc1c[nH]c2ccc(Cl)cc12)c1cc(C(=O)c2cc(F)ccc2F)on1 [Example D194, N-(2-(5-chloro-1H-indol-3-yl)ethyl)-5-(2,5-difluorobenzoyl)isoxazole-3-carboxamide] | 113
33 | O=C(NCCc1c[nH]c2ccc(Cl)cc12)c1cc(C(O)c2ccccc2)on1 (stereo not shown) [Example D195, N-(2-(5-chloro-1H-indol-3-yl)ethyl)-5-(hydroxy(phenyl)methyl)isoxazole-3-carboxamide] | 101
34 | CCOCC1CC(C(=O)NCCc2c[nH]c3ccc(Cl)cc23)=NO1 (stereo not shown) [Example D216, N-(2-(5-chloro-1H-indol-3-yl)ethyl)-5-(ethoxymethyl)-4,5-dihydroisoxazole-3-carboxamide] | 77
